# Reference: patent publication EP3449978A1, “INHIBITORS OF ARYL HYDROCARBON RECEPTOR FOR TREATING SOFT-TISSUE SARCOMA AND PREVENTING NEUROFIBROMA GROWTH AND/OR TRANSFORMATION TO MALIGNANT PERIPHERAL NERVE SHEATH TUMORS” (UNIVERSITE PARIS DESCARTES, priority 2017, dated 2019)
# Key:
# Assay type in all cases: cell-based, human
# [1] = system: STS26T cells; test: Annexin V / PI flow cytometry in STS26T cells
# Description: • Figure 1: AHR signaling pathway is activated in Dermal and Plexiform Neurofibromas, and MPNST. • A, Total RNA was isolated from patients having Dermal Neurofibromas (n=8), Plexiform Neurofibromas (n=16) and MPNST (n=14). RT-qPCR were performed using primers recognizing specifically the genes indicated. Table indicates median [range] mRNA levels. mRNA levels were normalized such that the median value of the dermal neurofibromas was 1. Kruskal Wallis H test was used to compare MPNST vs Plexiform Neurofibromas vs Dermal Neurofibromas. • B and B', Representative immunohistochemical study of AhR in a case of MPNST. Formalin fixed, paraffin embedded MPNST samples were stained with Hematoxylin-eosin-saffron (HES) and antibody recognizing AhR has been used to detect AhR. A strong nuclear AhR staining is detected in a proportion of tumor cells while intra-tumoral vessels (arrows) whereas fibroblasts in a fibrous septa (*) taken as internal negative controls are not stained. • Figure 2: AhR inhibition induced death of MPNST cell lines (STS26T) by apoptosis. • A, STS26T cell line was reverse transfected with either non-transfected (NT) or siRNA (10 nM). The total RNA was then extracted from these cells. Quantitative real-time PCR experiments were performed using primers recognizing AhR, AHRR, ARNT, CYP1A1 and CYP1 B1. *p<0.05, by non-parametric Student's t-test. • B, Flow cytometry has been conducted to determine the percentage of cell population of living cells, apoptotic cells, late apoptosis and dead. After 72h of medium change, cells are stained with Annexin and PI to detect the apoptosis and necrosis. Results represent the means +/- SEM of at least four independent experiments. *p<0.05, by non-parametric Student's t-test. • C, Total RNA was extracted from MPNST cell line STS26T treated either with TMF (10µM) and CH-223191 (50µM) or DMSO. Quantitative real-time PCR experiments were performed using primers recognizing CYP1A1, IL1β. The RT-PCR was normalized using TBP mRNA. Data represent the mean +/- SEM of at least 3 independent experiments. *p<0.05, by Student's t-test. • D, Human STS26T cell line was treated with either AHR antagonists CH-223191 (10µM and 50µM) or TMF (10µM) or DMSO. After 48h/72h of medium change, cells are stained with Annexin V and Propidium Iodide (PI) to detect apoptosis and necrosis. Flow cytometry has been conducted to determine the percentage of cell population of living cells (Annexin V-/PI-), apoptotic cells state (Annexin V+/PI-), late apoptosis state cells (Annexin V+/PI+) and dead cells (Annexin V-/PI+). […] Quantitative real-time PCR experiments were performed using primers recognizing CYP1A1 and CYP1 B1. *p<0.05, **p<0.01, ***p<0.001 by students t-test. • B, Human MPNST cell line (90-8) was incubated with AhR antagonist CH-223191 (1, 5, 10, 50 and 100 µM) during 48h and 72h. Cell viability was analyzed using WST1 assay. **p<.01, by Bonferroni's post hoc tests after two-way ANOVA when compared with DMSO. • C - D, Percentage of cell population of apoptotic (Annexin V+/PI-), dead (Annexin V-/PI+), necrotic (Annexin V+/PI+) and living (Annexin V-/PI-) cells were analyzed using flow cytometry. […] Quantitative real-time PCR experiments were performed using primers recognizing PUMA, GADD45 and IL1β. […]
# [2] = system: AhR; test: Quantitative RT-PCR of AhR pathway genes in STS26T cells; conditions: TMF 10µM, CH-223191 50µM, versus DMSO (Fig. 2C)
# Description: • Figure 1: AHR signaling pathway is activated in Dermal and Plexiform Neurofibromas, and MPNST. • A, Total RNA was isolated from patients having Dermal Neurofibromas (n=8), Plexiform Neurofibromas (n=16) and […]=14). RT-qPCR were performed using primers recognizing specifically the genes indicated. […] Kruskal Wallis H test was used to compare MPNST vs Plexiform Neurofibromas vs Dermal Neurofibromas. • B and B', Representative immunohistochemical study of AhR in a case of MPNST. Formalin fixed, paraffin embedded MPNST samples were stained with Hematoxylin-eosin-saffron (HES) and antibody recognizing AhR has been used to detect AhR. A strong nuclear AhR staining is detected in a proportion of tumor cells while intra-tumoral vessels (arrows) whereas fibroblasts in a fibrous septa (*) taken as internal negative controls are not stained. • Figure 2: AhR inhibition induced death of MPNST cell lines (ST[…]) by apoptosis. • A, ST[…] cell line was reverse transfected with either non-transfected (NT) or siRNA (10 nM). The total RNA was then extracted from these cells. Quantitative real-time PCR experiments were performed using primers recognizing AhR, AHRR, ARNT, CYP1A1 and CYP1 B1. *p<0.05, by non-parametric Student's t-test. • B, Flow cytometry has been conducted to determine the percentage of cell population of living cells, apoptotic cells, late apoptosis and dead. […]
# [3] = system: 90-8 cells; test: Annexin V / PI flow cytometry in 90-8 cells; conditions: 50µM, 48h and 72h, Annexin V and PI staining (Fig. 3C, 3D)
# Description: • Figure 1: AHR signaling pathway is activated in Dermal and Plexiform Neurofibromas, and MPNST. • A, Total RNA was isolated from patients having Dermal Neurofibromas (n=8), Plexiform Neurofibromas (n=16) and MPNST (n=14). RT-qPCR were performed using primers recognizing specifically the genes indicated. Table indicates median [range] mRNA levels. mRNA levels were normalized such that the median value of the dermal neurofibromas was 1. Kruskal Wallis H test was used to compare MPNST vs Plexiform Neurofibromas vs Dermal Neurofibromas. • B and B', Representative immunohistochemical study of AhR in a case of MPNST. […] A strong nuclear AhR staining is detected in a proportion of tumor cells while intra-tumoral vessels (arrows) whereas fibroblasts in a fibrous septa (*) taken as internal negative controls are not stained. • Figure 2: AhR inhibition induced death of MPNST cell lines (STS26T) by apoptosis. • A, STS26T cell line was reverse transfected with either non-transfected (NT) or siRNA (10 nM). […] Quantitative real-time PCR experiments were performed using primers recognizing AhR, AHRR, ARNT, CYP1A1 and CYP1 B1. *p<0.05, by non-parametric Student's t-test. • B, Flow cytometry has been conducted to determine the percentage of cell population of living cells, apoptotic cells, late apoptosis and dead. […]
# [4] = system: 90-8 cells; test: In vitro cytotoxicity assay (WST1 assay) in 90-8 cells; conditions: 50 µM, WST1 assay (Fig. 3B)
# Description: 90-8 cells were seeded in triplicate on 96-well plates. Cells were treated with either CH-223191 or 0.1% DMSO. Cytotoxicity was quantified 48 and 72 hours after treatment using WST1 assay (Roche). Relative cytotoxicity was determined as ratio of absorbance at 450 nm of cells treated with CH-223191 versus cells treated with DMSO. IC50 values corresponding to concentrations associated to 50% of cell viability after 72 hours of continuous exposure were determined.
# [5] = system: AhR; test: Quantitative RT-PCR of AhR target and cell death genes in 90-8 cells
# Description: RT-qPCR were performed using primers recognizing specifically the genes indicated. […] The total RNA was then extracted from these cells. […] Quantitative real-time PCR experiments were performed using primers recognizing CYP1A1 and CYP1 B1. *p<0.05, **p<0.01, ***p<0.001 by students t-test. • B, Human MPNST cell line (90-8) was incubated with AhR antagonist CH-223191 (1, 5, 10, 50 and 100 µM) during 48h and 72h. […] E, Total RNA was extracted from 90-8 cell line. Quantitative real-time PCR experiments were performed using primers recognizing PUMA, GADD45 and IL1β. The RT-PCR was normalized using 26S RNA. Data represent the mean+/-SEM of at least 3 independent experiments. *p<0.05, **p<0.01, **p<0.001, by Student's t test.
SMILES,"cell death, apoptosis and necrosis ([1]; STS26T, 50µM at 48h and 72h, Annexin V and PI staining (Fig. 2D))",expression of AhR target gene: CYP1A [2],"number of dead cells, apoptosis and necrosis [3]",decreased 90-8 cell viability [4],expression of IL1β ([5]; 90-8 cells (Fig. 3E)),expression of PUMA and GADD45 genes ([5]; 90-8 cells (Fig. 3E)),"expression of the classical AhR target genes: CYP1A1 and CYP1B1 ([5]; 90-8 cells, 50 µM (Fig. 3A))","effect on STS26T cell death ([1]; 10µM at 48h and 72h, compared with CH-223191)","cells necrotic ([1]; STS26T, 10µM, 72h)","cells underwent apoptosis ([1]; STS26T, 10µM, 72h)","decrease of cell viability ([1]; STS26T, 10µM, 72h)"
Cc1ccccc1N=Nc1ccc(NC(=O)c2ccnn2C)c(C)c1 [CH-223191],increased cell death and enhanced apoptosis and necrosis,inhibited,increased the number of dead cells and enhanced apoptosis and necrosis,50%,reduced,enhanced,inhibited,–,–,–,–
"COc1ccc(-c2cc(=O)c3cc(OC)ccc3o2)c(OC)c1 [TMF, 6,2',4',-trimethoxyflavone]",–,inhibited,–,–,–,–,–,more potent effect than CH-223191,30%,20%,50%
